This is an account of results in PubChem BioAssay (NCI).

Among the test systems are MDA-MB-231 breast; 786-0 renal; NCI-H226 lung; SNB-75 CNS; BT-549 breast; PC-3 prostate; T-47D breast; SR leukemia; XF 498 CNS; DMS 114 small cell lung; KM20L2 colon; DMS 273 small cell lung; HOP-18 NSCLC; SNB-78 CNS.
Test in all cases: NCI anticancer screen, dose series, 48 h

Several values for one entry are separate records, joined by “and”; a condition that tells them apart may be missing. Equal entries are not always repeated.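 48-hour exposure; five concentrations; linearly interpolated endpoints. GI50 is the concentration that inhibits growth by half. TGI: total growth inhibition.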

Take `CC(C)N(CC(=O)O)CC(=O)O`: the TGI in the experiment on MDA-MB-231 breast, with 786-0 renal, with NCI-H226 lung, in the experiment on SNB-75 CNS, in the experiment on BT-549 breast and in the experiment on PC-3 prostate was above 100 µM throughout. For the same molecule, the TGI in the experiment with T-47D breast and in the experiment on SR leukemia was above 100 µM in each case.

On to `O=C1c2cc3c(cc2[C@@H]2C(O)[C@H]4O[C@H]4C4CCN1C42)OCO3` (some centres undefined), for which the TGI in the experiment with XF 498 CNS, in the experiment with NCI-H226 lung, with DMS 114 small cell lung, in the experiment on KM20L2 colon, in the experiment with DMS 273 small cell lung and in the experiment on SR leukemia was above 37.5 µM in each case.

As to `C[C@@]12CC[C@@H](O)C[C@@H]1CC[C@H]1[C@H]2CC[C@@]2(C)[C@H](c3ccc(=O)oc3)CC[C@@]12O`, the GI50 is 0.0192 µM in the experiment on MDA-MB-231 breast; below 0.0183 µM with NCI-H226 lung; below 0.01 µM with SNB-75 CNS; below 0.01 µM with BT-549 breast; below 0.01 µM with PC-3 prostate; below 0.01 µM in the experiment on T-47D breast. Moreover, the TGI stood at 0.116 µM with MDA-MB-231 breast; 0.0723 µM with NCI-H226 lung; 0.0263 µM in the experiment on SNB-75 CNS; 0.0104 µM in the experiment on BT-549 breast; 0.0209 µM with PC-3 prostate; 0.0577 µM in the experiment with T-47D breast.

Consider `O=C(c1ccccc1)c1ccc(N2C(=O)/C(=C/c3cccc(Oc4ccccc4)c3)N=C2c2ccccc2)c(N2C(=O)/C(=C/c3cccc(Oc4ccccc4)c3)N=C2c2ccccc2)c1`, for which the TGI with MDA-MB-231 breast, in the experiment on 786-0 renal, with SNB-75 CNS, in the experiment with BT-549 breast, in the experiment with PC-3 prostate and with T-47D breast was above 100 µM in each case.

As to `CCOC(=O)C(C(=O)OCC)c1cc(-c2cc3ccccc3o2)oc(=O)c1C#N`, the TGI in the experiment with XF 498 CNS is 36.3 µM; with NCI-H226 lung, 41.9 µM; in the experiment on HOP-18 NSCLC, 65.4 µM; in the experiment with SNB-78 CNS, 73.4 µM; with DMS 114 small cell lung, 67.1 µM; in the experiment on SNB-75 CNS, 90.6 µM. Besides, the TGI in the experiment with KM20L2 colon came to 37.5 µM; with DMS 273 small cell lung it was 60.1 µM; with SR leukemia it was 66.3 µM.

On to `NC1=NC(c2ccc(Cl)cc2)=CC(c2cccc(Cl)c2)S1` (centres undefined), for which the TGI with 786-0 renal was above 100 µM; in the experiment on NCI-H226 lung, 71.9 µM; with BT-549 breast, above 100 µM; in the experiment on PC-3 prostate, above 100 µM; in the experiment on T-47D breast, above 100 µM; in the experiment on SR leukemia it was 72.5 µM.

For the molecule `CC(C)=CCC/C(C)=C/Cc1c2c(c3oc(-c4ccc(O)c(O)c4)c(O)c(=O)c3c1O)C=CC(C)(C)O2`, the TGI in the experiment on MDA-MB-231 breast amounted to 14.5 µM; in the experiment on 786-0 renal, 7.92 µM; in the experiment on NCI-H226 lung, 15.2 µM; in the experiment with SNB-75 CNS, 11.6 µM; with BT-549 breast, 15 µM; in the experiment with PC-3 prostate, 12.5 µM. Moreover, the TGI with T-47D breast was found to be 7.39 µM; with SR leukemia, 6.94 µM.

As to `COc1ccc2c(O)c1-c1c(OC)ccc(c1O)SSc1ccc(OC)c(c1O)-c1c(OC)ccc(c1O)SS2`, the TGI in the experiment on MDA-MB-231 breast is above 100 µM; with 786-0 renal it was above 100 µM; with NCI-H226 lung, above 100 µM; with SNB-75 CNS, above 100 µM; with PC-3 prostate, 26.4 µM; with T-47D breast, 62.9 µM. The TGI with SR leukemia amounted to 21.5 µM.

With `CN(C)CCC(=O)[C@@]1(O)CC[C@H]2[C@@H]3CC=C4C[C@@H](O)CC[C@]4(C)[C@H]3CC[C@@]21C`, the TGI in the experiment on MDA-MB-231 breast was 32.8 µM; in the experiment on 786-0 renal, 13.6 µM; in the experiment with NCI-H226 lung it was above 100 µM; in the experiment on SNB-75 CNS, 29.5 µM; with BT-549 breast, 32.8 µM; in the experiment with PC-3 prostate, 26.2 µM. For the same molecule, the TGI came to 23.5 µM with T-47D breast and 39.4 µM in the experiment on SR leukemia.

With `COc1cc2cc(C(=O)N3CC(CCl)c4ccc(NO)cc43)[nH]c2c(OC)c1OC` (centres undefined), the TGI in the experiment with SNB-75 CNS was 0.47 µM; with BT-549 breast it was 1.05 µM; in the experiment with PC-3 prostate, 2.05 µM; in the experiment with T-47D breast it was above 42.6 µM; with SR leukemia, above 100 µM.

For the molecule `Cc1ccc(C(=O)NC2C(=O)NC(C(C)C)C(=O)N3CCCC3C(=O)N(C)CC(=O)N(C)C(C(C)C)C(=O)OC2C)c2c1Oc1c(c(C(=O)NC3C(=O)NC(C(C)C)C(=O)N4CCCC4C(=O)N(C)CC(=O)N(C)C(C(C)C)C(=O)OC3C)c3nc(-c4ccccc4)c(=O)oc3c1C)N2` (centres undefined), the TGI with MDA-MB-231 breast was 0.221 µM and 0.129 µM; in the experiment with NCI-H226 lung, 0.00507 µM; in the experiment with SNB-75 CNS, 0.0132 µM; with BT-549 breast, 0.0224 µM; in the experiment on PC-3 prostate, 0.544 µM and 0.129 µM; in the experiment on T-47D breast, 0.168 µM.

Regarding `CCCCC(CC)C(=O)Oc1ccc(C(=O)c2ccccc2)c(O)c1` (centres undefined), the TGI in the experiment with MDA-MB-231 breast was above 100 µM; with SNB-75 CNS, 74.3 µM; in the experiment on BT-549 breast, above 100 µM; in the experiment on PC-3 prostate, above 100 µM; with T-47D breast, above 100 µM.

Take `CC1(C=O)CC(CCc2ccccc2)NC1Cc1ccc(O)cc1` (centres undefined): the TGI in the experiment with MDA-MB-231 breast worked out at 26.5 µM; with 786-0 renal it was 29.2 µM; with NCI-H226 lung, 31.5 µM; with SNB-75 CNS it was 28.6 µM; in the experiment with BT-549 breast it was 39.4 µM; with PC-3 prostate it was 26.7 µM. The TGI turned out to be 40.9 µM in the experiment with T-47D breast and 33.9 µM with SR leukemia.
